Where two headings read alike, the source gives them in different places.
Test system: HCT116 colon cancer cells
Experiment: KSP Cellular Assay (percent of cells staining positive for Phos-Histone H3 / Phos-MPM2)
Type: cell-based
Conditions: Homo sapiens, HCT-116, 16 h, HCT116 cells, 16 hours with drug
Procedure, shortened: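 HCT116 cells treated with compound for 16 hours, fixed and stained with Hoechst plus Phos-Histone H3 (ser10) and Phos-MPM2 antibodies. Percent positive cells from immunofluorescence imaging; EC50 by sigmoidal nonlinear regression over 8-point dilutions in duplicate.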

[1] = Table 101, read-out: ED50 (nM) Range
[2] = Table 401, read-out: ED50 (nM) Range

CC(=O)N1N=C(c2cc(F)ccc2F)SC12CCc1ccccc12 (stereo not drawn) [compound 105]
EC50 [1]: ≤ 500 nM

CN(C)C(=O)N1N=C(c2cc(F)ccc2F)SC12CCc1ccccc12 (stereo not drawn) [compound 602]
EC50 (Table 601, read-out: EC50 (nM) Range): 500 to 1000 nM

CC(=O)N1CCC2(SC(c3cc(F)ccc3F)=NN2C(C)=O)c2ccccc21 (stereo not drawn) [compound 112]
EC50 [1]: > 1000 nM

CC(=O)N1N=C(c2cc(F)cc(F)c2)S[C@@]12c1ccccc1OC[C@H]2CCN [compound 1815]
EC50 (table of Example 1801 (headed Table 1201), read-out: EC50 (nM) Range): ≤ 500 nM

CC(C)N1N=C(c2cc(F)ccc2F)SC12CCOc1ccccc12 (stereo not drawn) [compound 702]
EC50 (Table 701, read-out: EC50 (nM) Range): > 1000 nM

O=C(C1CCCN1)N1N=C(c2cc(F)ccc2F)SC12CCCc1ccccc12 (stereo not drawn) [compound 410]
EC50 [2]: > 1000 nM

N[C@H](C(=O)N1N=C(c2cc(F)ccc2F)SC12CCOc1ccccc12)C1CC1 (stereo partly drawn) [compound 419]
EC50 [2]: > 1000 nM

CC(=O)N1N=C(c2cc(F)ccc2F)SC12c1ccccc1OCC2CCO (stereo not drawn) [compound 2301]
EC50 (table of Example 2301, read-out: EC50 (nM) Range): ≤ 500 nM

O=C(Cc1cccnc1)N1N=C(c2cc(F)ccc2F)SC12CCOc1ccccc12 (stereo not drawn) [compound 484]
EC50 [2]: 500 to 1000 nM

CC(=O)N1N=C(c2cc(F)ccc2F)S[C@@]12CCNc1ccccc12 (single isomer, unassigned) [compound 2401]
EC50 (table of Example 2401, read-out: EC50 (nM) Range): ≤ 500 nM

NCC[C@@H]1COc2ccccc2[C@@]12SC(c1cc(F)ccc1F)=NN2C(=O)N1CCOCC1 [compound 2205]
EC50 (table of Example 2201, read-out: EC50 (nM) Range): > 1000 nM

N[C@H](C(=O)N1N=C(c2cc(F)ccc2F)SC12CCCc1ccsc12)C1CC1 (stereo partly drawn) [compound 428]
EC50 [2]: > 1000 nM
